# Results as given in PMC11433764, “A Novel Compound from the Phenylsulfonylpiperazine Class: Evaluation of In Vitro Activity on Luminal Breast Cancer Cells” (Molecules, 2024).
# Test system: MCF-10A
# Experiment: MTT cell viability, non-tumor cell line MCF-10A
# Assay type: cell-based
# Conditions: 48 h, up to 160 μM
# Experimental: (§1) Four different breast cells lines were used in this study: MCF-10A (non-tumorigenic), MCF7 (ER+ BC), MDA-MB453 (HER2+ BC) and MDA-MB231 (TNBC). All lineages were obtained from the American Type Culture Collection (ATCC; Manassas, VA, USA) and maintained at a temperature of 37 °C according to the supplier’s recommendations. Only MDA-MB231 cells were not kept in an atmosphere of 5% CO2. MCF-10A was grown in Dulbecco’s Modified Eagle’s Medium (DMEM F12, Gibco, ThermoFisher Scientific, Waltham, MA, USA) supplemented with 20 ng/mL epidermal growth factor (Gibco, ThermoFisher Scientific, Waltham, MA, USA), 0.5 μg/mL hydrocortisone (Sigma-Aldrich, Sigma-Aldrich, St. Louis, MO, USA) and 10 μg/mL insulin (Gibco, ThermoFisher Scientific, Waltham, MA, USA). MCF7 was cultivated in Roswell Park Memorial Institute Medium (RPMI-1640, Gibco, ThermoFisher Scientific, Waltham, MA, USA), MDA-MB453 in IMDM and MDA-MB231 in Leibovitz’s medium (L-15, Gibco, ThermoFisher Scientific, Waltham, MA, USA). All media were supplemented with 10% fetal bovine serum (FBS, Gibco, ThermoFisher Scientific, Waltham, MA, USA) and 50 µg/mL of gentamicin (Cultilab, Campinas, SP, Brazil). The cells were confirmed to be free of mycoplasma and passaged using a 0.25% trypsin-EDTA solution when confluency reached 80–90%.
# (§2) Cell viability was determined by spectrophotometric quantification of MTT (3-[4,5-dimethyl-thiazol-2-yl]-2,5-diphenyltetrazolium bromide—Invitrogen. Waltham, MA, USA) reduction to formazan crystals. Cells were seeded at the density of 1 × 10^4 cells/well (MCF-10A, MDA-MB453), 1.5 × 10^4 cells/well (MDA-MB231) and 3 × 10^3 cells/well (MCF7) in 96-well culture dishes and incubated with different concentrations of the compounds (1.25, 2.5, 5, 10, 20, 40, 80 and 160 µM) for 48 h. The medium was than replaced by MTT solution (0.5 mg/mL) and plates were kept at 37 °C for 4 h. After the aspiration of the media, the formazan crystals were diluted with 100 μL of dimethyl-sulfoxide (DMSO)/well and the absorbance at 570 nm was measured using a spectrophotometer (Thermo Plate TP-Reader, Waltham, MA, USA). Cytotoxicity was calculated using the following formula: Cytotoxicity (%) = [absorbance of cells treated with the compounds/absorbance of cells treated with DMSO) × 100]. The IC50 was determined for each compound and was defined as the concentration required to inhibit 50% of cell growth, compared to the control sample (cells treated with DMSO 0.05%).
# (§3) Data were presented as the mean ± standard deviation (SD) and analyzed using GraphPad Prism 9.0 software (GraphPad Software Inc., La Jolla, CA, USA). All data were assayed in triplicate. Statistical analysis was performed using one-way ANOVA, Tukey´s HSD post hoc test and Student’s t-test. The IC50 was calculated using non-linear regression and the selectivity index (SI) was calculated by the ratio between the IC50 values corresponding to the non-tumor cell lineage (MCF-10A) and the IC50 values corresponding to the BC cell lines. Statistical significance was accepted at p values < 0.05.
row,SMILES,Cytotoxicity to the MCF-10A cell line (in words)
1,N#Cc1ccc(C(=O)N2CCN(S(=O)(=O)c3ccc(Cl)cc3)CC2)cc1 [Compound 1],not cytotoxic
2,O=C(c1ccc(Cl)nc1)N1CCN(S(=O)(=O)c2ccc(Cl)cc2)CC1 [Compound 4],not cytotoxic
3,CN(C)CCNc1ccc(C(=O)N2CCN(S(=O)(=O)c3ccc(Cl)cc3)CC2)cn1 [Compound 5],not cytotoxic
4,CCOC(=O)c1ccc(N2CCN(S(=O)(=O)c3ccc(Cl)cc3)CC2)nc1 [Compound 6],not cytotoxic

# Same assay, conditions: Homo sapiens, MCF-10A, 48 h, 1.25–160 μM, read-out: IC50 MCF-10A
row,SMILES,IC50
1,N#Cc1ccc(C(=O)N2CCN(S(=O)(=O)c3ccc(Cl)cc3)CC2)cc1 [Compound 1],> 160 µM
2,CN(C)CCOc1ccc(C(=O)N2CCN(S(=O)(=O)c3ccc(Cl)cc3)CC2)cc1 [Compound 2],88.2 µM
3,O=C(c1ccc(Cl)nc1)N1CCN(S(=O)(=O)c2ccc(Cl)cc2)CC1 [Compound 4],> 160 µM
4,CN(C)CCNc1ccc(C(=O)N2CCN(S(=O)(=O)c3ccc(Cl)cc3)CC2)cn1 [Compound 5],> 160 µM
5,CCOC(=O)c1ccc(N2CCN(S(=O)(=O)c3ccc(Cl)cc3)CC2)nc1 [Compound 6],> 160 µM
6,O=S(=O)(c1ccc(Cl)cc1)N1CCN(c2ccc(CO)cn2)CC1 [Compound 7],91.2 µM
7,O=C(c1ccc(N2CCN(S(=O)(=O)c3ccc(Cl)cc3)CC2)nc1)N1CCCC1 [Compound 8],86 µM
8,CN(C)C(=O)c1ccc(N2CCN(S(=O)(=O)c3ccc(Cl)cc3)CC2)nc1 [Compound 9],63.9 µM
9,CN(C)Cc1ccc(N2CCN(S(=O)(=O)c3ccc(Cl)cc3)CC2)nc1 [Compound 10],109 µM

# Test system: MCF7
# Experiment: MTT cell viability, MCF7
# Assay type: cell-based
# Parameters: key to SI MCF7: NS: the compound was more active in the non-tumor cell line
# Conditions: Homo sapiens, MCF7; 48 h, MTT, 1.25–160 μM; read-out: IC50 MCF7
# Experimental: as §1, §2, §3
row,SMILES,IC50
1,N#Cc1ccc(C(=O)N2CCN(S(=O)(=O)c3ccc(Cl)cc3)CC2)cc1 [Compound 1],> 160 µM
2,CN(C)CCOc1ccc(C(=O)N2CCN(S(=O)(=O)c3ccc(Cl)cc3)CC2)cc1 [Compound 2],> 160 µM
3,O=C(c1ccc(Cl)nc1)N1CCN(S(=O)(=O)c2ccc(Cl)cc2)CC1 [Compound 4],> 160 µM
4,CN(C)CCNc1ccc(C(=O)N2CCN(S(=O)(=O)c3ccc(Cl)cc3)CC2)cn1 [Compound 5],82.9 µM
5,CCOC(=O)c1ccc(N2CCN(S(=O)(=O)c3ccc(Cl)cc3)CC2)nc1 [Compound 6],> 160 µM
6,O=S(=O)(c1ccc(Cl)cc1)N1CCN(c2ccc(CO)cn2)CC1 [Compound 7],> 160 µM
7,O=C(c1ccc(N2CCN(S(=O)(=O)c3ccc(Cl)cc3)CC2)nc1)N1CCCC1 [Compound 8],154 µM
8,CN(C)C(=O)c1ccc(N2CCN(S(=O)(=O)c3ccc(Cl)cc3)CC2)nc1 [Compound 9],> 160 µM
9,CN(C)Cc1ccc(N2CCN(S(=O)(=O)c3ccc(Cl)cc3)CC2)nc1 [Compound 10],62 µM

# Same assay, conditions: IC50 MCF10A / IC50 MCF7
row,SMILES,SI MCF7
1,CN(C)CCOc1ccc(C(=O)N2CCN(S(=O)(=O)c3ccc(Cl)cc3)CC2)cc1 [Compound 2],NS
2,CN(C)CCNc1ccc(C(=O)N2CCN(S(=O)(=O)c3ccc(Cl)cc3)CC2)cn1 [Compound 5],>1.93
3,O=S(=O)(c1ccc(Cl)cc1)N1CCN(c2ccc(CO)cn2)CC1 [Compound 7],NS
4,O=C(c1ccc(N2CCN(S(=O)(=O)c3ccc(Cl)cc3)CC2)nc1)N1CCCC1 [Compound 8],NS
5,CN(C)C(=O)c1ccc(N2CCN(S(=O)(=O)c3ccc(Cl)cc3)CC2)nc1 [Compound 9],NS
6,CN(C)Cc1ccc(N2CCN(S(=O)(=O)c3ccc(Cl)cc3)CC2)nc1 [Compound 10],1.75

# Test system: MDA-MB-231
# Experiment: MTT cell viability, MDA-MB-231
# Assay type: cell-based
# Parameters: key to SI MDA-MB-231: NS: the compound was more active in the non-tumor cell line
# Conditions: Homo sapiens, MDA-MB-231; 48 h, MTT, 1.25–160 μM; read-out: IC50 MDA-MB-231
# Experimental: as §1, §2, §3
row,SMILES,IC50
1,N#Cc1ccc(C(=O)N2CCN(S(=O)(=O)c3ccc(Cl)cc3)CC2)cc1 [Compound 1],84.9 µM
2,CN(C)CCOc1ccc(C(=O)N2CCN(S(=O)(=O)c3ccc(Cl)cc3)CC2)cc1 [Compound 2],61.3 µM
3,O=C(c1ccc(Cl)nc1)N1CCN(S(=O)(=O)c2ccc(Cl)cc2)CC1 [Compound 4],112 µM
4,CN(C)CCNc1ccc(C(=O)N2CCN(S(=O)(=O)c3ccc(Cl)cc3)CC2)cn1 [Compound 5],> 160 µM
5,CCOC(=O)c1ccc(N2CCN(S(=O)(=O)c3ccc(Cl)cc3)CC2)nc1 [Compound 6],53.1 µM
6,O=S(=O)(c1ccc(Cl)cc1)N1CCN(c2ccc(CO)cn2)CC1 [Compound 7],107 µM
7,O=C(c1ccc(N2CCN(S(=O)(=O)c3ccc(Cl)cc3)CC2)nc1)N1CCCC1 [Compound 8],135 µM
8,CN(C)C(=O)c1ccc(N2CCN(S(=O)(=O)c3ccc(Cl)cc3)CC2)nc1 [Compound 9],> 160 µM
9,CN(C)Cc1ccc(N2CCN(S(=O)(=O)c3ccc(Cl)cc3)CC2)nc1 [Compound 10],> 160 µM

# Same assay, conditions: IC50 MCF10A / IC50 MDA-MB-231
row,SMILES,SI MDA-MB-231
1,N#Cc1ccc(C(=O)N2CCN(S(=O)(=O)c3ccc(Cl)cc3)CC2)cc1 [Compound 1],>1.88
2,CN(C)CCOc1ccc(C(=O)N2CCN(S(=O)(=O)c3ccc(Cl)cc3)CC2)cc1 [Compound 2],1.44
3,O=C(c1ccc(Cl)nc1)N1CCN(S(=O)(=O)c2ccc(Cl)cc2)CC1 [Compound 4],>1.42
4,CCOC(=O)c1ccc(N2CCN(S(=O)(=O)c3ccc(Cl)cc3)CC2)nc1 [Compound 6],>3.01
5,O=S(=O)(c1ccc(Cl)cc1)N1CCN(c2ccc(CO)cn2)CC1 [Compound 7],0.85
6,O=C(c1ccc(N2CCN(S(=O)(=O)c3ccc(Cl)cc3)CC2)nc1)N1CCCC1 [Compound 8],NS
7,CN(C)C(=O)c1ccc(N2CCN(S(=O)(=O)c3ccc(Cl)cc3)CC2)nc1 [Compound 9],NS
8,CN(C)Cc1ccc(N2CCN(S(=O)(=O)c3ccc(Cl)cc3)CC2)nc1 [Compound 10],NS

# Test system: MDA-MB-453
# Experiment: MTT cell viability, MDA-MB-453
# Assay type: cell-based
# Parameters: key to SI MDA-MB-453: NS: the compound was more active in the non-tumor cell line
# Conditions: Homo sapiens, MDA-MB-453; 48 h, MTT, 1.25–160 μM; read-out: IC50 MDA-MB-453
# Experimental: as §1, §2, §3
row,SMILES,IC50
1,N#Cc1ccc(C(=O)N2CCN(S(=O)(=O)c3ccc(Cl)cc3)CC2)cc1 [Compound 1],> 160 µM
2,CN(C)CCOc1ccc(C(=O)N2CCN(S(=O)(=O)c3ccc(Cl)cc3)CC2)cc1 [Compound 2],50.5 µM
3,O=C(c1ccc(Cl)nc1)N1CCN(S(=O)(=O)c2ccc(Cl)cc2)CC1 [Compound 4],> 160 µM
4,CN(C)CCNc1ccc(C(=O)N2CCN(S(=O)(=O)c3ccc(Cl)cc3)CC2)cn1 [Compound 5],> 160 µM
5,CCOC(=O)c1ccc(N2CCN(S(=O)(=O)c3ccc(Cl)cc3)CC2)nc1 [Compound 6],> 160 µM
6,O=S(=O)(c1ccc(Cl)cc1)N1CCN(c2ccc(CO)cn2)CC1 [Compound 7],> 160 µM
7,O=C(c1ccc(N2CCN(S(=O)(=O)c3ccc(Cl)cc3)CC2)nc1)N1CCCC1 [Compound 8],92.5 µM
8,CN(C)C(=O)c1ccc(N2CCN(S(=O)(=O)c3ccc(Cl)cc3)CC2)nc1 [Compound 9],> 160 µM
9,CN(C)Cc1ccc(N2CCN(S(=O)(=O)c3ccc(Cl)cc3)CC2)nc1 [Compound 10],48.4 µM

# Same assay, conditions: IC50 MCF10A / IC50 MDA-MB-453
row,SMILES,SI MDA-MB-453
1,CN(C)CCOc1ccc(C(=O)N2CCN(S(=O)(=O)c3ccc(Cl)cc3)CC2)cc1 [Compound 2],1.75
2,O=S(=O)(c1ccc(Cl)cc1)N1CCN(c2ccc(CO)cn2)CC1 [Compound 7],NS
3,O=C(c1ccc(N2CCN(S(=O)(=O)c3ccc(Cl)cc3)CC2)nc1)N1CCCC1 [Compound 8],NS
4,CN(C)C(=O)c1ccc(N2CCN(S(=O)(=O)c3ccc(Cl)cc3)CC2)nc1 [Compound 9],NS
5,CN(C)Cc1ccc(N2CCN(S(=O)(=O)c3ccc(Cl)cc3)CC2)nc1 [Compound 10],2.25

# Test system: tumor cells MCF7, MDA-MB-453 and MDA-MB-231
# Experiment: MTT cell viability, tumor cells (stated collectively)
# Assay type: cell-based
# Conditions: 48 h, MTT; tumor cells stated collectively
# Experimental: as §1, §2, §3
row,SMILES,IC50
1,N#Cc1ccc(C(=O)N2CCN(S(=O)(=O)c3ccc(Cl)cc3)CC2)cc1 [Compound 1],> 50 µM
2,O=C(c1ccc(Cl)nc1)N1CCN(S(=O)(=O)c2ccc(Cl)cc2)CC1 [Compound 4],> 50 µM
3,CN(C)CCNc1ccc(C(=O)N2CCN(S(=O)(=O)c3ccc(Cl)cc3)CC2)cn1 [Compound 5],> 50 µM
4,CCOC(=O)c1ccc(N2CCN(S(=O)(=O)c3ccc(Cl)cc3)CC2)nc1 [Compound 6],> 50 µM
5,CN(C)Cc1ccc(N2CCN(S(=O)(=O)c3ccc(Cl)cc3)CC2)nc1 [Compound 10],< 50 µM
